{"source": "patent USRE40259E1", "about": "“Alpha-aminoamide derivatives useful as analgesic agents” (Newron Pharmaceuticals, S.p.A., priority 1997, dated 2008)", "assay_type_in_all_cases": "in vivo", "key": {"[1]": {"tested_on": "Male NMRI CD-1 mice", "experiment": "Formalin test (formalin nociception test in mice)", "conditions": "for Licking time, Acute phase / Licking time, Chronic phase: 60 min before formalin, mice; for Licking time, Acute phase: acute phase 0-5 min; for Licking time, Chronic phase: chronic phase 30-40 min; for Effect on cumulative licking time in both phases of the formalin test: 7.5-60.0 mg/kg po, result in words", "text": "Formalin test is a useful tool for obtaining neurogenic inflammation and continuous pain (Shibata et al, Pain, 38: 347-352, 1989).\nFormalin produces a distinct biphasic response. The early phase seems to be caused predominantly by C-fibre activation due to peripheral stimulus, while the late phase appears to be dependent on the combination of an inflammatory reaction in the peripheral tissue and functional changes in the dorsal horn of the spinal cord. This functional changes seem to be initiated by the C-fibre barrage during the early phase (Tjolsen et al. Pain 51, 5-17, 1992). Substance P and bradykinin participate in the early phase, while histamine, serotonin, prostaglandins and bradykinin are involved in the late phase.\nMale NMRI CD-1 mice (22-25 g) were injected with […] μl of 2.7% solution of formalin into the right hindpaw and placed immediately into observation chambers. The cumulative licking time of the injected paw was recorded in the acute phase (0-5 min) and in the chronic phase (30-40 min) of the nociceptive response of formalin.\nThe two representative compounds of the invention (S)-2-[4-(3- fluorobenzyloxy)benzylamino]-propanamide, methanesulfonate (internal code PNU 151774E) and (S)-[2-[4-(3-fluorobenzyloxy)benzylamino]-2-methyl-propanamide […] were administered 60 min before formalin injection at the doses of 7.5, 15.0, 30.0 and 60.0 mg/kg; po. Morphine (5 mg/kg; sc) was used as a positive standard. The activities data were analysed by Dunnett's t-test."}, "[2]": {"tested_on": "mice", "experiment": "Locomotor activity test", "conditions": "for Locomotor activity counts (mean ± sem): 60 min before test, 15 min test, mice; for Effect on locomotor activity: 7.5-60.0 mg/kg po, result in words", "experimental": "(§1) The effects of these compounds on locomotor activity and rotarod (a test for evaluating motor co-ordination) were studied in order to exclude changes in these parameters as confounding factors in the evaluation of the formalin response. The locomotor activity test lasted 15 min. Five minutes after testing locomotor activity, the mice were put on the rotarod for 2 min and the number of mice falling within this time were counted. Compounds PNU 151774E and PNU 156654E were tested at the doses of 7.5, 15.0, 30.0 and 60.0 mg/kg; po. The compounds were administered 60 min before locomotor activity test."}, "[3]": {"tested_on": "mice", "experiment": "Rotarod (motor co-ordination)", "conditions": "for Rotarod co-ordination (mice fallen/total mice): 2 min on rotarod; for Effect on rotarod activity: 7.5-60.0 mg/kg po, result in words", "experimental": "as §1"}}, "note": "Marks after values point to notes of the source that are not given here."}
{"smiles": "C[C@H](NCc1ccc(OCc2cccc(F)c2)cc1)C(N)=O", "note": "[PNU 151774E, (S)-2-[4-(3-fluorobenzyloxy)benzylamino]-propanamide, methanesulfonate]", "values": [{"measurement": "Licking time, Acute phase", "setting": "[1]; 7.5 mg/kg po", "value": "137.9 ± 2.4^a sec"}, {"measurement": "Licking time, Chronic phase", "setting": "[1]; 7.5 mg/kg po", "value": "72.4 ± 2.4^ sec"}, {"measurement": "Licking time, Acute phase", "setting": "[1]; 15.0 mg/kg po", "value": "87.9 ± 3.3^a sec"}, {"measurement": "Licking time, Chronic phase", "setting": "[1]; 15.0 mg/kg po", "value": "64.3 ± 2.8^b sec"}, {"measurement": "Licking time, Acute phase", "setting": "[1]; 30.0 mg/kg po", "value": "79.4 ± 3.0^a sec"}, {"measurement": "Licking time, Chronic phase", "setting": "[1]; 30.0 mg/kg po", "value": "56.9 ± 2.6^a sec"}, {"measurement": "Licking time, Acute phase", "setting": "[1]; 60.0 mg/kg po", "value": "63.1 ± 2.6^a sec"}, {"measurement": "Licking time, Chronic phase", "setting": "[1]; 60.0 mg/kg po", "value": "38.1 ± 3.6^a sec"}, {"measurement": "Effect on cumulative licking time in both phases of the formalin test", "setting": "[1]", "value": "dose-dependently reduced cumulative licking time in both phases"}, {"measurement": "Locomotor activity counts (mean ± sem)", "setting": "[2]; 7.5 mg/kg po", "value": "2908 ± 234", "unit": "counts"}, {"measurement": "Locomotor activity counts (mean ± sem)", "setting": "[2]; 15 mg/kg po", "value": "2795 ± 255", "unit": "counts"}, {"measurement": "Locomotor activity counts (mean ± sem)", "setting": "[2]; 30 mg/kg po", "value": "2347 ± 203", "unit": "counts"}, {"measurement": "Locomotor activity counts (mean ± sem)", "setting": "[2]; 60 mg/kg po", "value": "2240 ± 195", "unit": "counts"}, {"measurement": "Effect on locomotor activity", "setting": "[2]", "value": "without any effect"}, {"measurement": "Rotarod co-ordination (mice fallen/total mice)", "setting": "[3]; 7.5 mg/kg po", "value": "0/10"}, {"measurement": "Rotarod co-ordination (mice fallen/total mice)", "setting": "[3]; 15 mg/kg po", "value": "0/10"}, {"measurement": "Rotarod co-ordination (mice fallen/total mice)", "setting": "[3]; 30 mg/kg po", "value": "0/10"}, {"measurement": "Rotarod co-ordination (mice fallen/total mice)", "setting": "[3]; 60 mg/kg po", "value": "0/10"}, {"measurement": "Effect on rotarod activity", "setting": "[3]", "value": "without any effect"}]}
{"smiles": "CC(C)(NCc1ccc(OCc2cccc(F)c2)cc1)C(N)=O", "note": "[PNU 156654E, 2-[4-(3-fluorobenzyloxy)benzylamino]-2-methyl-propanamide]", "values": [{"measurement": "Licking time, Acute phase", "setting": "[1]; 7.5 mg/kg po", "value": "108.4 ± 4.2^ sec"}, {"measurement": "Licking time, Chronic phase", "setting": "[1]; 7.5 mg/kg po", "value": "62.4 ± 3.6^ sec"}, {"measurement": "Licking time, Acute phase", "setting": "[1]; 15.0 mg/kg po", "value": "79.7 ± 3.7^a sec"}, {"measurement": "Licking time, Chronic phase", "setting": "[1]; 15.0 mg/kg po", "value": "42.1 ± 6.2^a sec"}, {"measurement": "Licking time, Acute phase", "setting": "[1]; 30.0 mg/kg po", "value": "60.0 ± 2.3^a sec"}, {"measurement": "Licking time, Chronic phase", "setting": "[1]; 30.0 mg/kg po", "value": "37.7 ± 6.9^a sec"}, {"measurement": "Licking time, Acute phase", "setting": "[1]; 60.0 mg/kg po", "value": "44.4 ± 4.2^a sec"}, {"measurement": "Licking time, Chronic phase", "setting": "[1]; 60.0 mg/kg po", "value": "17.3 ± 6.6^a sec"}, {"measurement": "Effect on cumulative licking time in both phases of the formalin test", "setting": "[1]", "value": "dose-dependently reduced cumulative licking time in both phases"}, {"measurement": "Locomotor activity counts (mean ± sem)", "setting": "[2]; 7.5 mg/kg po", "value": "1966 ± 188", "unit": "counts"}, {"measurement": "Locomotor activity counts (mean ± sem)", "setting": "[2]; 15 mg/kg po", "value": "2110 ± 256", "unit": "counts"}, {"measurement": "Locomotor activity counts (mean ± sem)", "setting": "[2]; 30 mg/kg po", "value": "2272 ± 317", "unit": "counts"}, {"measurement": "Locomotor activity counts (mean ± sem)", "setting": "[2]; 60 mg/kg po", "value": "2119 ± 310", "unit": "counts"}, {"measurement": "Effect on locomotor activity", "setting": "[2]", "value": "without any effect"}, {"measurement": "Rotarod co-ordination (mice fallen/total mice)", "setting": "[3]; 7.5 mg/kg po", "value": "0/10"}, {"measurement": "Rotarod co-ordination (mice fallen/total mice)", "setting": "[3]; 15 mg/kg po", "value": "0/10"}, {"measurement": "Rotarod co-ordination (mice fallen/total mice)", "setting": "[3]; 30 mg/kg po", "value": "0/10"}, {"measurement": "Rotarod co-ordination (mice fallen/total mice)", "setting": "[3]; 60 mg/kg po", "value": "0/10"}, {"measurement": "Effect on rotarod activity", "setting": "[3]", "value": "without any effect"}]}
